According to PubChem BioAssay (NCI):
“And” between values parts separate entries of the source, which are not always exact repeats. Identical values can stand only once.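 In this assay, cells in 96-well plates receive the compound at five concentrations for 48 hours. Endpoints are linearly interpolated between the surrounding concentrations. Abbreviation: GI50, concentration required for 50% inhibition of growth. TGI marks complete inhibition of growth.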

Legend:
Assay in all cases: NCI-60 cell line screen, 48 h
[1] = tested on: 786-0 renal
[2] = tested on: A549 NSCLC
[3] = tested on: ACHN renal
[4] = tested on: BT-549 breast
[5] = tested on: CAKI-1 renal
[6] = tested on: COLO 205 colon
[7] = tested on: DU-145 prostate
[8] = tested on: EKVX NSCLC
[9] = tested on: HCT-116 colon
[10] = tested on: HCT-15 colon
[11] = tested on: HL-60(TB) leukemia
[12] = tested on: HOP-62 NSCLC
[13] = tested on: HOP-92 NSCLC
[14] = tested on: HS 578T breast
[15] = tested on: IGROV1 ovarian
[16] = tested on: K-562 leukemia
[17] = tested on: KM12 colon
[18] = tested on: LOX IMVI melanoma
[19] = tested on: M14 melanoma
[20] = tested on: MCF7 breast
[21] = tested on: MDA-MB-231 breast
[22] = tested on: MDA-MB-435
[23] = tested on: NCI-H23 lung
[24] = tested on: NCI-H460 lung
[25] = tested on: NCI-H522 lung
[26] = tested on: NCI/ADR-RES ovarian
[27] = tested on: OVCAR-3 ovarian
[28] = tested on: OVCAR-5 ovarian
[29] = tested on: OVCAR-8 ovarian
[30] = tested on: PC-3 prostate
[31] = tested on: RPMI-8226 leukemia
[32] = tested on: SF-268 CNS
[33] = tested on: SF-295 CNS
[34] = tested on: SF-539 CNS
[35] = tested on: SK-MEL-2 melanoma
[36] = tested on: SK-MEL-5 melanoma
[37] = tested on: SK-OV-3 ovarian
[38] = tested on: SN12C renal
[39] = tested on: SNB-19 CNS
[40] = tested on: SR leukemia
[41] = tested on: SW-620 colon
[42] = tested on: T-47D breast
[43] = tested on: TK-10 renal
[44] = tested on: U251 CNS
[45] = tested on: UACC-257 melanoma
[46] = tested on: UACC-62 melanoma
[47] = tested on: UO-31 renal
[48] = tested on: A498 renal
[49] = tested on: CCRF-CEM leukemia
[50] = tested on: HCC-2998 colon
[51] = tested on: HT29 colon
[52] = tested on: MALME-3M melanoma
[53] = tested on: MOLT-4 leukemia
[54] = tested on: NCI-H226 lung
[55] = tested on: OVCAR-4 ovarian
[56] = tested on: RXF 393 renal
[57] = tested on: SK-MEL-28 melanoma
[58] = tested on: SNB-75 CNS

COc1cccc(C2NC(=S)NC(C)=C2C(=O)Nc2ccc(F)c(Cl)c2)c1 (stereo not drawn)
GI50 [1]: > 50 µM | TGI [1]: > 50 µM | GI50 [2]: 20.8 µM | TGI [2]: > 50 µM | GI50 [3]: 23.8 µM | TGI [3]: > 50 µM | GI50 [4]: 15.2 µM | TGI [4]: 46.1 µM | GI50 [5]: 48.9 µM | TGI [5]: > 50 µM | GI50 [6]: 27.2 µM | TGI [6]: > 50 µM | GI50 [7]: 36.3 µM | TGI [7]: > 50 µM | GI50 [8]: 22.8 µM | TGI [8]: > 50 µM | GI50 [9]: 23.1 µM | TGI [9]: > 50 µM | GI50 [10]: 23.7 µM | TGI [10]: > 50 µM | GI50 [11]: 17.4 µM | TGI [11]: > 50 µM | GI50 [12]: > 50 µM | TGI [12]: > 50 µM | GI50 [13]: > 50 µM | TGI [13]: > 50 µM | GI50 [14]: 13.5 µM | TGI [14]: 40.2 µM | GI50 [15]: 27.6 µM | TGI [15]: > 50 µM | GI50 [16]: 12.6 µM | TGI [16]: 49.2 µM | GI50 [17]: 18.2 µM | TGI [17]: > 50 µM | GI50 [18]: 17.6 µM | TGI [18]: > 50 µM | GI50 [19]: 25.2 µM | TGI [19]: > 50 µM | GI50 [20]: 20.2 µM | TGI [20]: > 50 µM | GI50 [21]: 29 µM | TGI [21]: > 50 µM | GI50 [22]: 27.3 µM | TGI [22]: > 50 µM | GI50 [23]: 18.5 µM | TGI [23]: 47.7 µM | GI50 [24]: 43.2 µM | TGI [24]: > 50 µM | GI50 [25]: 20.8 µM | TGI [25]: > 50 µM | GI50 [26]: 18.2 µM | TGI [26]: > 50 µM | GI50 [27]: 41.3 µM | TGI [27]: > 50 µM | GI50 [28]: 12.1 µM | TGI [28]: 38.9 µM | GI50 [29]: 34.6 µM | TGI [29]: > 50 µM | GI50 [30]: 23.2 µM | TGI [30]: > 50 µM | GI50 [31]: 11.6 µM | TGI [31]: > 50 µM | GI50 [32]: 28.7 µM | TGI [32]: > 50 µM | GI50 [33]: 22.4 µM | TGI [33]: > 50 µM | GI50 [34]: > 50 µM | TGI [34]: > 50 µM | GI50 [35]: 29.3 µM | TGI [35]: > 50 µM | GI50 [36]: 13.3 µM | TGI [36]: 32.9 µM | GI50 [37]: > 50 µM | TGI [37]: > 50 µM | GI50 [38]: 26.1 µM | TGI [38]: > 50 µM | GI50 [39]: > 50 µM | TGI [39]: > 50 µM | GI50 [40]: 15.8 µM | TGI [40]: 40.2 µM | GI50 [41]: > 50 µM | TGI [41]: > 50 µM | GI50 [42]: > 50 µM | TGI [42]: > 50 µM | GI50 [43]: 30.1 µM | TGI [43]: > 50 µM | GI50 [44]: 23.9 µM | TGI [44]: > 50 µM | GI50 [45]: 10.4 µM | TGI [45]: 30.7 µM | GI50 [46]: 29.3 µM | TGI [46]: > 50 µM | GI50 [47]: 20.4 µM | TGI [47]: > 50 µM

CC[C@H](C)n1cc(C)c2c(C(=O)NCc3c(C)cc(C)[nH]c3=O)cc(-c3ccc(N4CCNCC4)nc3)cc21
GI50 [1]: 10.6 µM and 11.7 µM | TGI [1]: 24.4 µM and 25.2 µM | GI50 [48]: 15.4 µM and 12.6 µM | TGI [48]: 30 µM and 26.9 µM | GI50 [2]: 16.8 µM and 16.3 µM | TGI [2]: 32.4 µM and 32.1 µM | GI50 [3]: 17.1 µM and 16.5 µM | TGI [3]: 31.2 µM and 31.3 µM | GI50 [4]: 15.4 µM and 13.5 µM | TGI [4]: 30.5 µM and 27.7 µM | GI50 [5]: 16.1 µM and 15.4 µM | TGI [5]: 29.6 µM and 28.8 µM | GI50 [49]: 18 µM and 11.1 µM | TGI [49]: 35.9 µM and 26.3 µM | GI50 [6]: 5.25 µM and 2.93 µM | TGI [6]: 18.6 µM and 8.85 µM | GI50 [7]: 14.7 µM and 15.1 µM | TGI [7]: 27.9 µM and 28.7 µM | GI50 [8]: 12.6 µM and 13.6 µM | TGI [8]: 27 µM and 27.6 µM | GI50 [50]: 14.7 µM and 9.46 µM | TGI [50]: 30.2 µM and 23.4 µM | GI50 [9]: 10.1 µM and 9.6 µM | TGI [9]: 21.6 µM and 22.1 µM | GI50 [10]: 15.9 µM and 12.6 µM | TGI [10]: 30.7 µM and 26.5 µM | GI50 [11]: 24.6 µM and 14.6 µM | TGI [11]: 41.8 µM and 31.9 µM | GI50 [12]: 17.1 µM and 14.9 µM | TGI [12]: 33.1 µM and 29.8 µM | GI50 [13]: 6.72 µM and 6.83 µM | TGI [13]: 20.9 µM and 21.1 µM | GI50 [14]: 13.6 µM and 13.2 µM | TGI [14]: 30.9 µM and 33.1 µM | GI50 [51]: 5.19 µM and 6.53 µM | TGI [51]: 18.4 µM and 20.6 µM | GI50 [15]: 12.9 µM and 16.4 µM | TGI [15]: 27.4 µM and 33.2 µM | GI50 [16]: 2.87 µM and 3.2 µM | TGI [16]: 8.09 µM and 10.9 µM | GI50 [17]: 11.4 µM and 10.7 µM | TGI [17]: 24.2 µM and 23.6 µM | GI50 [18]: 8.89 µM and 6.3 µM | TGI [18]: 21.8 µM and 19.4 µM | GI50 [19]: 9.56 µM and 4.52 µM | TGI [19]: 22.5 µM and 14.3 µM | GI50 [52]: 8 µM and 2.51 µM | TGI [52]: 21.5 µM and 6.78 µM | GI50 [20]: 10.4 µM and 6.88 µM | TGI [20]: 24.9 µM and 21.8 µM | GI50 [21]: 6.38 µM and 7 µM | TGI [21]: 19.5 µM and 20.5 µM | GI50 [22]: 10 µM and 5.12 µM | TGI [22]: 21.6 µM and 16.3 µM | GI50 [53]: 5.87 µM and 6.18 µM | TGI [53]: 20.6 µM and 22 µM | GI50 [54]: 16.3 µM and 17.3 µM | TGI [54]: 36.5 µM and 36.9 µM | GI50 [23]: 18 µM and 17.6 µM | TGI [23]: 34.3 µM and 34 µM | GI50 [24]: 12.3 µM and 12.5 µM | TGI [24]: 24.7 µM and 26 µM | GI50 [25]: 17.6 µM and 14 µM | TGI [25]: 34.2 µM and 29.5 µM | GI50 [26]: 35.1 µM and 17.6 µM | TGI [26]: > 100 µM and 33.7 µM | GI50 [27]: 14.2 µM | TGI [27]: 27.4 µM and 28.2 µM | GI50 [55]: 13.4 µM and 12.5 µM | TGI [55]: 28.9 µM and 26.4 µM | GI50 [28]: 16.1 µM and 15.3 µM | TGI [28]: 30.5 µM and 29.9 µM | GI50 [29]: 18.5 µM and 17.7 µM | TGI [29]: 37.4 µM and 37.6 µM | GI50 [30]: 17.3 µM and 13.9 µM | TGI [30]: 31.5 µM and 27.3 µM | GI50 [31]: 11.4 µM and 11.7 µM | TGI [31]: 28 µM and 28.9 µM | GI50 [56]: 9 µM and 7.71 µM | TGI [56]: 23.7 µM and 23.2 µM | GI50 [32]: 14.7 µM and 13 µM | TGI [32]: 29.8 µM and 27.8 µM | GI50 [33]: 16.2 µM and 14.8 µM | TGI [33]: 31.9 µM and 29.3 µM | GI50 [34]: 15.1 µM and 13 µM | TGI [34]: 28.5 µM and 26.7 µM | GI50 [35]: 17.5 µM and 15.4 µM | TGI [35]: 32.9 µM and 29.9 µM | GI50 [57]: 14.1 µM and 6.51 µM | TGI [57]: 27.8 µM and 19.9 µM | GI50 [36]: 15.8 µM and 6.13 µM | TGI [36]: 29.2 µM and 18 µM | GI50 [37]: 19.1 µM and 14.6 µM | TGI [37]: 33.5 µM and 28 µM | GI50 [38]: 13.8 µM and 13.7 µM | TGI [38]: 27.9 µM and 28.6 µM | GI50 [39]: 14.9 µM and 12.7 µM | TGI [39]: 30.4 µM and 26.8 µM | GI50 [58]: 6.12 µM and 3.63 µM | TGI [58]: 19.8 µM and 17.6 µM | GI50 [41]: 10.1 µM and 8.21 µM | TGI [41]: 21.8 µM and 22.1 µM | GI50 [42]: 16.6 µM and 11.4 µM | TGI [42]: 36.3 µM and 28.4 µM | GI50 [43]: 15.4 µM | TGI [43]: 29.7 µM | GI50 [44]: 10.9 µM and 10.2 µM | TGI [44]: 23.1 µM and 22.7 µM | GI50 [45]: 16.5 µM and 14.8 µM | TGI [45]: 31.5 µM and 29.5 µM | GI50 [46]: 17.5 µM and 14.3 µM | TGI [46]: 33.2 µM and 28.5 µM | GI50 [47]: 15.3 µM and 12.9 µM | TGI [47]: 29.6 µM and 27.3 µM
